The results in this text go back to ChEMBL document CHEMBL5042481, “Structure-Based Optimization of ML300-Derived, Noncovalent Inhibitors Targeting the Severe Acute Respiratory Syndrome Coronavirus 3CL Protease (SARS-CoV-2 3CLpro)” (J Med Chem, 2022).

For data set [1], the system named is SARS-CoV-2. As to the kind of experiment: Antiviral activity against SARS Cov-2 USA_WA1/2020 infected in Vero E6 cells expressing ACE2 reporter assessed as reduction in plaque formation at 0.21 to 50 uM and measured at 3 days post-infection by crystal violet staining based assay. The data set is classed as functional, organism-based. Conditions: Severe acute respiratory syndrome coronavirus 2, USA_WA1/2020, Vero C1008, 72 h.

In data set [2] the test system is SARS-CoV-2. Description: Antiviral activity against SARS Cov-2 USA_WA1/2020 infected in Vero E6 cells expressing ACE2 reporter assessed as inhibition of viral cytopathic effect measured after 68 hrs post infection by neutral red uptake assay. Format: functional, organism-based. Conditions: Severe acute respiratory syndrome coronavirus 2, USA_WA1/2020, Vero C1008, 68 h.

Data set [3] in a line: Intrinsic clearance in human liver S9 fraction at 25 uM incubated for 1 hr in presence of NADPH by LC-MS/MS analysis. The data set is classed as ADME, subcellular. Particulars: read-out: CLH.
A short description of data set [4]: Intrinsic clearance in human liver microsomes. The data set is classed as ADME, Microsome. Particulars: read-out: CLH.
Data set [5] in a line: Intrinsic clearance in rat liver microsomes. Conditions: read-out: CLH. The data set is classed as ADME, Microsome.
Data set [6] can be described thus: Protein binding in human plasma assessed as unbound fraction. The data set is classed as ADME, cell-free.
Data set [7] is described as follows: Apparent passive permeability in MDCK-MDR1 cells. The data set is classed as ADME, cell-based, Canis lupus familiaris. Conditions: dog.
In data set [8] the target is CYP3A4 (Homo sapiens, UniProt P08684). As to the kind of experiment: Inhibition of CYP3A4 (unknown origin) at 10 uM relative to control. The data set is classed as ADME.
CYP3A4, sequence (P08684 whole entry): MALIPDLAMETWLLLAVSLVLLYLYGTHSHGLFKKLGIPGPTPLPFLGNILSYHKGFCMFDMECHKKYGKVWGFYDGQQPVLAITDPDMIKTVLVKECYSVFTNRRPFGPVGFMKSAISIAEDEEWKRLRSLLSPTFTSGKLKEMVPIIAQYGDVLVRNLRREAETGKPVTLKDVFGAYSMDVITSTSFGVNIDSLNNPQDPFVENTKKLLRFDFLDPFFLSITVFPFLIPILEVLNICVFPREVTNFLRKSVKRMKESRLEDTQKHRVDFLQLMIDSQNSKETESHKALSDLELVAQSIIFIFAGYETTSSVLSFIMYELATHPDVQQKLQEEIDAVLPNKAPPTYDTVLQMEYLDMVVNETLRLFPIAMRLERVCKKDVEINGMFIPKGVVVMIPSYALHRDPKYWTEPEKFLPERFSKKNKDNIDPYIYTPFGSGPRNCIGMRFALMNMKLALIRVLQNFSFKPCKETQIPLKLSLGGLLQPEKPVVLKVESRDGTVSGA
For data set [9], the target named is CYP2D6 (Homo sapiens, UniProt P10635). As to the kind of experiment: Inhibition of CYP2D6 (unknown origin) at 10 uM relative to control. The data set is classed as ADME.
CYP2D6, sequence (P10635 whole entry): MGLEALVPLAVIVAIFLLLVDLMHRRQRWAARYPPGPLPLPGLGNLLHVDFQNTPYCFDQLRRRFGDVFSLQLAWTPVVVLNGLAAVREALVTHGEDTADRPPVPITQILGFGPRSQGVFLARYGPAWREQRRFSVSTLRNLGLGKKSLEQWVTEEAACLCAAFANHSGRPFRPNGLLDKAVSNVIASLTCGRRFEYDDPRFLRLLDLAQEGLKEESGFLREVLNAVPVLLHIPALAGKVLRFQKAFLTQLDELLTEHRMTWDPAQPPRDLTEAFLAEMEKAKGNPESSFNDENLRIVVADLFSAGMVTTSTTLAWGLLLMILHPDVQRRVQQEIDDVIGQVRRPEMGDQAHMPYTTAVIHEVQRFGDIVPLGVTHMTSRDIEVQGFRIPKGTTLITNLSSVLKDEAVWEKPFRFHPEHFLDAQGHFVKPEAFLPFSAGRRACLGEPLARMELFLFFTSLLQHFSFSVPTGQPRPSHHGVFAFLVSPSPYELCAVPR
In data set [10] the target is CYP2C9 (Homo sapiens, UniProt P11712). As to the kind of experiment: Inhibition of CYP2C9 (unknown origin) at 10 uM relative to control. The data set is classed as ADME.
CYP2C9, sequence (P11712 whole entry): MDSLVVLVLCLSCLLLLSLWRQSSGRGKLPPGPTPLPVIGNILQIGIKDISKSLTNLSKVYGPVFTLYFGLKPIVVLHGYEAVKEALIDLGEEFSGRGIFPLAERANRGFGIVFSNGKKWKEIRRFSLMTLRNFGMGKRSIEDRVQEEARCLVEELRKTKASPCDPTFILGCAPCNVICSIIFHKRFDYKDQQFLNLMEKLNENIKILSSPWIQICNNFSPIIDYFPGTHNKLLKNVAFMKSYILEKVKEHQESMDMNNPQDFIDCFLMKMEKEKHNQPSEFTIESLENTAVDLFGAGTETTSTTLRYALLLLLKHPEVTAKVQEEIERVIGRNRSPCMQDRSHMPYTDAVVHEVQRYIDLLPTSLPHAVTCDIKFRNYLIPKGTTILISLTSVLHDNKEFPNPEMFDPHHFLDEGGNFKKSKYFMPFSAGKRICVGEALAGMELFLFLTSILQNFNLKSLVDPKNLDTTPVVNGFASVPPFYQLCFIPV
Data set [11] deals with Severe acute respiratory syndrome coronavirus 2. Particulars: dose microM <=100, time 30.0 min.
The test system of data set [12] is Severe acute respiratory syndrome-related coronavirus. Particulars: 1, dose microM <=100, time 30.0 min.
A short description of data set [13]: Protein binding in rat plasma assessed as unbound fraction. Format: ADME, cell-free.
For data set [14], the system named is SARS-CoV-2. As to the kind of experiment: Cytotoxicity against SARS CoV-2 infected Vero E6 cells assessed as reduction in cell viability. The data set is classed as toxicity. Particulars: chlorocebus sabaeus, vero c1008.

pEC50: −log10 of the molar value. Activity calls are given as the source filed them. No cut-off for these calls is given here.

For the molecule `COc1cc(N(Cc2cccc(Cl)c2)C(=O)Cn2nnc3ccccc32)ccc1-c1cn[nH]c1`, the negative-log EC50 (pEC50) was 5.49 in data set [1] and 5.53 in [2].

As to `O=C(Cn1nnc2ccccc21)N(Cc1cccc(Cl)c1)c1ccc(-c2cn[nH]c2)cc1`, the negative-log EC50 (pEC50) in data set [1] was 5.48; in data set [2], 5.70. For the same molecule, the CLint scaled at 25 µM in data set [3] was 436 mL/min/kg. Further, the results for the CLint scaled in data set [4] and in data set [5] were 2620 mL/min/kg and 5670 mL/min/kg, respectively. Besides, the fraction unbound in data set [6] was determined as 0.001. Besides, the Papp in data set [7] was determined as 39.4 ×10⁻⁶ cm/s. Moreover, the figures for the inhibition at 10 µM in [8], in data set [9] and in data set [10] were 96%, 63% and 99%, respectively.

As for `O=C(Cn1nnc2ccccc21)N(Cc1cccc(Cl)c1)c1ccc(-c2cn[nH]c2)nc1`, the pEC50 is 5.33 in data set [1] and 5.42 in data set [2].

On to `CCC(CC)COC(=O)[C@H](C)NP(=O)(OC[C@H]1O[C@@](C#N)(c2ccc3c(N)ncnn23)[C@H](O)[C@@H]1O)Oc1ccccc1` (single isomer, unassigned), for which the pEC50 in data set [1] is 6.37; in [2], 6.47.

`COc1cc(-c2cn[nH]c2)ccc1N(Cc1cccc(Cl)c1)C(=O)Cn1nnc2ccccc21`: the pEC50 in data set [1] was 5.70; in data set [2], 5.64.

With `O=C(Cn1nnc2ccccc21)N(Cc1ccsc1)c1ccc(-c2cccnc2)cc1`, the inhibition entry in data set [11] and in data set [12] was “Active” each time. Besides, the negative logarithm of the EC50 (pEC50) is 4.84 in data set [1] and 4.92 in data set [2].

Regarding `O=C(Cn1nnc2ccccc21)N(Cc1ccsc1)c1ccc(-c2c[nH]cn2)cc1`, the pEC50 in data set [1] and in data set [2] was 5.76 in each case. Besides, the fraction unbound in data set [6] turned out to be 0.01.

`O=C(Cn1nnc2ccccc21)N(Cc1cccc(Cl)c1)c1ccc(-c2ccc[nH]c2=O)cc1`: the pEC50 in [1] was 4.78; in data set [2], 5.06.

For `O=C(Cn1nnc2ccccc21)N(Cc1cccc(Cl)c1)c1ccc(-c2cccnc2)cc1`, the pEC50 in data set [1] was 4.95; in data set [2], 5.12.

In the case of `O=C(Cc1cccnc1)N(Cc1cccc(Cl)c1)c1ccc(-c2cn[nH]c2)cc1`, in [3], the CLint scaled at 25 µM is 256 mL/min/kg. Besides, the CLint scaled in data set [4] was 981 mL/min/kg; in data set [5], 3560 mL/min/kg. Besides, the values for the fraction unbound in [6] and in data set [13] were 0.004 and 0.035, respectively. The apparent permeability (Papp) in [7] stood at 61.8 ×10⁻⁶ cm/s. Besides, the inhibition at 10 µM amounted to 99% in data set [8], 55% in [9] and 99% in [10].

Regarding `O=C(Nc1ccc(N(Cc2ccsc2)C(=O)Cn2nnc3ccccc32)cc1)C1CC1`, the negative-log EC50 (pEC50) in [1] is 4.55; in data set [2] it was 4.70.

As for `O=C(Cn1nnc2ccccc21)N(Cc1cccc(Cl)c1)c1ccc(-c2c[nH]cn2)cc1`, the CC50 in data set [14] was > 50 µM. Moreover, the figures for the CLint scaled in data set [4] and in [5] were 141 mL/min/kg and 589 mL/min/kg, respectively. The fraction unbound in data set [6] was found to be 0.007; in data set [13], 0.018. Moreover, the Papp in data set [7] amounted to 46.1 ×10⁻⁶ cm/s. Also, the inhibition at 10 µM in [8] was found to be 100%; in data set [9], 87%; in data set [10], 100%.

For the molecule `O=C(Cc1cncnc1)N(Cc1cccc(Cl)c1)c1ccc(-c2cn[nH]c2)cc1`, in [3], the CLint scaled at 25 µM was determined as 145 mL/min/kg. Also, the CLint scaled in data set [4] came out at 620 mL/min/kg; in data set [5], 3300 mL/min/kg. In addition, the fraction unbound was found to be 0.018 in data set [6] and 0.11 in data set [13]. The Papp in data set [7] turned out to be 66.7 ×10⁻⁶ cm/s. In addition, the values for the inhibition at 10 µM in data set [8], in data set [9] and in data set [10] were 88%, 26% and 92%, respectively.

As for `O=C(Cn1nnc2ccccc21)N(Cc1ccsc1)c1ccc(-c2ccccc2)cc1`, the inhibition result in [11] and in data set [12] was “inactive” in each case.

With `O=C(Cn1nnc2ccccc21)N(Cc1cccc(Cl)c1)c1ccc(-c2cn[nH]c2)cn1`, the pEC50 in data set [1] is 5.47; in data set [2], 5.72.
